Measured values taken from ChEMBL document CHEMBL3352227, “Synthesis, antimycobacterial and antibacterial evaluation of l-[(1R, 2S)-2-fluorocyclopropyl]fluoroquinolone derivatives containing an oxime functional moiety” (Eur J Med Chem, 2014).
Values after ≈ are worked out from the molar mass of the structure shown.

Assays:
Assay type in all cases: functional
Escherichia coli [1] = test: Antibacterial activity against extended-spectrum beta-lactamase producing Escherichia coli 12-15 after 18 to 24 hrs by standard twofold serial dilution method
[2] = system: Mycobacterium tuberculosis; test: Antimycobacterial activity against Mycobacterium tuberculosis H37Rv ATCC 27294 by MABA method
Escherichia coli [3] = test: Antibacterial activity against extended-spectrum beta-lactamase producing Escherichia coli 12-2 after 18 to 24 hrs by standard twofold serial dilution method
Staphylococcus aureus [4] = test: Antibacterial activity against methicillin-sensitive Staphylococcus aureus 12-5 after 18 to 24 hrs by standard twofold serial dilution method
Klebsiella pneumoniae [5] = test: Antibacterial activity against Klebsiella pneumoniae 12-1 after 18 to 24 hrs by standard twofold serial dilution method
Escherichia coli [6] = test: Antibacterial activity against Escherichia coli ATCC 25922 after 18 to 24 hrs by standard twofold serial dilution method
Klebsiella pneumoniae [7] = test: Antibacterial activity against extended-spectrum beta-lactamase producin Klebsiella pneumoniae 12-3 after 18 to 24 hrs by standard twofold serial dilution method
Klebsiella pneumoniae [8] = test: Antibacterial activity against Klebsiella pneumoniae 12-4 after 18 to 24 hrs by standard twofold serial dilution method
Streptococcus pneumoniae [9] = test: Antibacterial activity against Streptococcus pneumoniae 12-18 after 18 to 24 hrs by standard twofold serial dilution method
Pseudomonas aeruginosa [10] = test: Antibacterial activity against Pseudomonas aeruginosa 12-14 after 18 to 24 hrs by standard twofold serial dilution method
Staphylococcus aureus [11] = test: Antibacterial activity against Staphylococcus aureus ATCC 25923 after 18 to 24 hrs by standard twofold serial dilution method
Streptococcus pneumoniae [12] = test: Antibacterial activity against Streptococcus pneumoniae ATCC 49619 after 18 to 24 hrs by standard twofold serial dilution method
[13] = system: Staphylococcus epidermidis; test: Antibacterial activity against methicillin-sensitive Staphylococcus epidermidis 12-1 after 18 to 24 hrs by standard twofold serial dilution method
[14] = system: Staphylococcus epidermidis; test: Antibacterial activity against methicillin-sensitive Staphylococcus epidermidis 12-8 after 18 to 24 hrs by standard twofold serial dilution method
Staphylococcus aureus [15] = test: Antibacterial activity against methicillin-resistant Staphylococcus aureus 12-2 after 18 to 24 hrs by standard twofold serial dilution method
Escherichia coli [16] = test: Antibacterial activity against extended-spectrum beta-lactamase producing Escherichia coli 12-14 after 18 to 24 hrs by standard twofold serial dilution method
Staphylococcus aureus [17] = test: Antibacterial activity against methicillin-sensitive Staphylococcus aureus 12-4 after 18 to 24 hrs by standard twofold serial dilution method
Pseudomonas aeruginosa [18] = test: Antibacterial activity against Pseudomonas aeruginosa 12-12 after 18 to 24 hrs by standard twofold serial dilution method
Escherichia coli [19] = test: Antibacterial activity against Escherichia coli 12-1 after 18 to 24 hrs by standard twofold serial dilution method
Staphylococcus aureus [20] = test: Antibacterial activity against methicillin-sensitive Staphylococcus aureus 12-1 after 18 to 24 hrs by standard twofold serial dilution method
Klebsiella pneumoniae [21] = test: Antibacterial activity against extended-spectrum beta-lactamase producin Klebsiella pneumoniae 12-7 after 18 to 24 hrs by standard twofold serial dilution method
Klebsiella pneumoniae [22] = test: Antibacterial activity against extended-spectrum beta-lactamase producin Klebsiella pneumoniae 12-4 after 18 to 24 hrs by standard twofold serial dilution method
[23] = system: Staphylococcus epidermidis; test: Antibacterial activity against methicillin-sensitive Staphylococcus epidermidis 12-6 after 18 to 24 hrs by standard twofold serial dilution method
Staphylococcus aureus [24] = test: Antibacterial activity against methicillin-resistant Staphylococcus aureus 12-5 after 18 to 24 hrs by standard twofold serial dilution method
Staphylococcus aureus [25] = test: Antibacterial activity against methicillin-resistant Staphylococcus aureus 12-4 after 18 to 24 hrs by standard twofold serial dilution method
Klebsiella pneumoniae [26] = test: Antibacterial activity against Klebsiella pneumoniae 12-2 after 18 to 24 hrs by standard twofold serial dilution method
[27] = system: Staphylococcus epidermidis; test: Antibacterial activity against methicillin-sensitive Staphylococcus epidermidis 12-3 after 18 to 24 hrs by standard twofold serial dilution method
Klebsiella pneumoniae [28] = test: Antibacterial activity against extended-spectrum beta-lactamase producin Klebsiella pneumoniae 12-14 after 18 to 24 hrs by standard twofold serial dilution method
[29] = system: Staphylococcus epidermidis; test: Antibacterial activity against methicillin-resistant Staphylococcus epidermidis 12-6 after 18 to 24 hrs by standard twofold serial dilution method
Staphylococcus aureus [30] = test: Antibacterial activity against methicillin-sensitive Staphylococcus aureus 12-2 after 18 to 24 hrs by standard twofold serial dilution method
Escherichia coli [31] = test: Antibacterial activity against extended-spectrum beta-lactamase producing Escherichia coli 12-3 after 18 to 24 hrs by standard twofold serial dilution method
[32] = system: Staphylococcus epidermidis; test: Antibacterial activity against methicillin-resistant Staphylococcus epidermidis 12-1 after 18 to 24 hrs by standard twofold serial dilution method

Row | SMILES | MIC (Escherichia coli [1]) [µg/mL] | MIC [2] [µg/mL] | MIC (Escherichia coli [3]) [µg/mL] | MIC (Staphylococcus aureus [4]) [µg/mL] | MIC (Klebsiella pneumoniae [5]) [µg/mL] | MIC (Escherichia coli [6]) [µg/mL] | MIC (Klebsiella pneumoniae [7]) [µg/mL] | MIC (Klebsiella pneumoniae [8]) [µg/mL] | MIC (Streptococcus pneumoniae [9]) [µg/mL] | MIC (Pseudomonas aeruginosa [10]) [µg/mL] | MIC (Staphylococcus aureus [11]) [µg/mL] | MIC (Streptococcus pneumoniae [12]) [µg/mL] | MIC [13] [µg/mL] | MIC [14] [µg/mL] | MIC (Staphylococcus aureus [15]) [µg/mL] | MIC (Escherichia coli [16]) [µg/mL] | MIC (Staphylococcus aureus [17]) [µg/mL] | MIC (Pseudomonas aeruginosa [18]) [µg/mL] | MIC (Escherichia coli [19]) [µg/mL] | MIC (Staphylococcus aureus [20]) [µg/mL] | also measured
1 | CO/N=C1/CCN(c2nc3c(cc2F)c(=O)c(C(=O)O)cn3[C@@H]2C[C@@H]2F)CC1N (some centres undefined) | > 128 | 4 (≈ 9.82 µM) | > 128 | 2 (≈ 4.91 µM) | 2 (≈ 4.91 µM) | 0.25 (≈ 0.614 µM) | > 128 | 1 (≈ 2.45 µM) | 4 (≈ 9.82 µM) | 128 (≈ 314 µM) | 1 (≈ 2.45 µM) | 1 (≈ 2.45 µM) | 1 (≈ 2.45 µM) | < 0.008 | > 128 | > 128 | 1 (≈ 2.45 µM) | 16 (≈ 39.3 µM) | 8 (≈ 19.6 µM) | 2 (≈ 4.91 µM) | MIC (Klebsiella pneumoniae [21]): 32 µg/mL (≈ 78.6 µM); MIC (Klebsiella pneumoniae [22]): 64 µg/mL (≈ 157 µM); MIC [23]: 1 µg/mL (≈ 2.45 µM); MIC (Staphylococcus aureus [24]): > 128 µg/mL; MIC (Staphylococcus aureus [25]): > 128 µg/mL; MIC (Klebsiella pneumoniae [26]): 1 µg/mL (≈ 2.45 µM); MIC [27]: < 0.008 µg/mL; MIC (Klebsiella pneumoniae [28]): > 128 µg/mL; MIC [29]: 1 µg/mL (≈ 2.45 µM); MIC (Staphylococcus aureus [30]): 2 µg/mL (≈ 4.91 µM); MIC (Escherichia coli [31]): 16 µg/mL (≈ 39.3 µM); MIC [32]: > 128 µg/mL
2 | CO/N=C1/CN(c2c(F)cc3c(=O)c(C(=O)O)cn([C@@H]4C[C@@H]4F)c3c2OC)[C@H]1CN | 64 (≈ 152 µM) | 0.5 (≈ 1.18 µM) | 64 (≈ 152 µM) | 0.125 (≈ 0.296 µM) | 0.5 (≈ 1.18 µM) | 0.25 (≈ 0.592 µM) | 64 (≈ 152 µM) | 0.5 (≈ 1.18 µM) | 2 (≈ 4.73 µM) | 16 (≈ 37.9 µM) | < 0.008 | 0.25 (≈ 0.592 µM) | 0.125 (≈ 0.296 µM) | 2 (≈ 4.73 µM) | 8 (≈ 18.9 µM) | 128 (≈ 303 µM) | 0.06 (≈ 0.142 µM) | 2 (≈ 4.73 µM) | 2 (≈ 4.73 µM) | 0.125 (≈ 0.296 µM) | MIC (Klebsiella pneumoniae [21]): 2 µg/mL (≈ 4.73 µM); MIC (Klebsiella pneumoniae [22]): 16 µg/mL (≈ 37.9 µM); MIC [23]: 0.125 µg/mL (≈ 0.296 µM); MIC (Staphylococcus aureus [24]): 4 µg/mL (≈ 9.47 µM); MIC (Staphylococcus aureus [25]): 8 µg/mL (≈ 18.9 µM); MIC (Klebsiella pneumoniae [26]): 0.5 µg/mL (≈ 1.18 µM); MIC [27]: 0.125 µg/mL (≈ 0.296 µM); MIC (Klebsiella pneumoniae [28]): 64 µg/mL (≈ 152 µM); MIC [29]: 2 µg/mL (≈ 4.73 µM); MIC (Staphylococcus aureus [30]): 0.125 µg/mL (≈ 0.296 µM); MIC (Escherichia coli [31]): 32 µg/mL (≈ 75.8 µM); MIC [32]: 2 µg/mL (≈ 4.73 µM)
